From US20190211002A1, “NOVEL TRIAZOLE DERIVATIVES” (Bayer CropScience Aktiengesellschaft, priority 2016, published 2019)
Blank lines part the entries; values can stand above or below the molecule they belong to.

Key:
[1] = LogP by HPLC on reversed phase columns (EEC directive 79/831 Annex V.A8); type: physicochemical; conditions: method [a]: LC-UV, acidic range, 0.1% formic acid in water and acetonitrile as eluent; for chromatographic logP: reversed phase HPLC column
Method: Measurement of LogP values was performed according to EEC directive 79/831 Annex V.A8 by HPLC (High Performance Liquid Chromatography) on reversed phase columns with the following methods: • ^[a] […] Lambda-max-values were determined using UV-spectra from 200 nm to 400 nm and the peak values of the chromatographic signals.

[2] = test system: Septoria tritici; test: Example G: in vivo 5 days preventive Septoria tritici test (wheat), comparison vs. WO-A 2010/146116; conditions: inoculated 5 days after spraying, evaluated 21 days after inoculation
Method: • Solvent: 49 parts by weight of N,N-dimethylacetamide • Emulsifier: 1 part by weight of alkylaryl polyglycol ether To produce a suitable preparation of active compound, 1 part by weight of active compound or active compound combination is mixed with the stated amounts of solvent and emulsifier, and the concentrate is diluted with water to the desired concentration. To test for preventive and long-lasting activity, young plants are sprayed with a preparation of active compound or active compound combination at the stated rate of application. After the spray coating has been dried, the plants are placed in the greenhouse at a temperature of approximately 15° C. and a relative atmospheric humidity of approximately 80%. 5 days later the plants are sprayed with a spore suspension of Septoria tritici. The plants remain for 48 hours in an incubation cabinet at approximately 20° C. and a relative atmospheric humidity of approximately 100% and afterwards for 60 hours at approximately 15° C. in a translucent incubation cabinet at a relative atmospheric humidity of approximately 100%. Then the plants are placed in the greenhouse at a temperature of approximately 15° C. and a relative atmospheric humidity of approximately 80%. The test is evaluated 21 days after the inoculation.

[3] = test system: Puccinia recondita; test: Example A: in vivo preventive test on Puccinia recondita (brown rust on wheat); conditions: 264 h, 500 ppm of active ingredient, preventive spray, evaluated 11 days after inoculation, read-out: efficacy
Method: (§1) The test is evaluated 11 days after the inoculation.

[4] = test system: Sphaerotheca fuliginea; test: Example C: in vivo preventive test on Sphaerotheca fuliginea (powdery mildew on cucurbits); conditions: Podosphaera fuliginea, 360 h; 500 ppm of active ingredient; gherkin; preventive spray; evaluated 15 days after inoculation; read-out: efficacy
Method: The test is evaluated 15 days after the inoculation.

[5] = test system: Uromyces appendiculatus; test: Example D: in vivo preventive test on Uromyces appendiculatus (bean rust); conditions: 264 h, 500 ppm of active ingredient, preventive spray, evaluated 11 days after inoculation, read-out: efficacy
Method: as §1

[6] = test system: Blumeria graminis f sp. hordei; test: Example E: in vivo preventive Blumeria test (barley); conditions: 168 h, 500 ppm of active ingredient, preventive spray, evaluated 7 days after inoculation, read-out: efficacy
Method: • Solvent: 49 parts by weight of N,N-dimethylacetamide • Emulsifier: 1 part by weight of alkylaryl polyglycol ether To produce a suitable preparation of active compound, 1 part by weight of active compound or active compound combination was mixed with the stated amounts of solvent and emulsifier, and the concentrate was diluted with water to the desired concentration. To test for preventive activity, young plants were sprayed with the preparation of active compound or active compound combination at the stated rate of application. After the spray coating had been dried, the plants were dusted with spores of Blumeria graminis f sp. hordei. The plants were placed in the greenhouse at a temperature of approximately 18° C. and a relative atmospheric humidity of approximately 80% to promote the development of mildew pustules. The test was evaluated 7 days after the inoculation.

[7] = test system: Sphaerotheca fuliginea; test: Example H: in vivo preventive test on Sphaerotheca (cucumbers), comparison vs. WO-A 2010/146116; conditions: evaluated 7 days after inoculation
Method: To produce a suitable preparation of active compound, 1 part by weight of active compound is mixed with the stated amounts of solvent and emulsifier, and the concentrate is diluted with water to the desired concentration. To test for preventive activity, young plants are sprayed with the preparation of active compound at the stated rate of application. After the spray coating has dried on, the plants are inoculated with an aqueous spore suspension of Sphaerotheca fuliginea. The plants are then placed in a greenhouse at approximately 23° C. and a relative atmospheric humidity of approximately 70%. The test is evaluated 7 days after the inoculation.

[8] = test system: Sphaerotheca fuliginea; test: Example F: in vivo preventive test on Sphaerotheca (cucumbers), comparison vs. known phenoxy-phenyl compounds; conditions: rate of application 10 ppm, evaluated 7 days after inoculation
Method: • Solvent: 24.5 parts by weight of acetone • 24.5 parts by weight of dimethylacetamide • Emulsifier: 1 part by weight of alkylaryl polyglycol ether
To produce a suitable preparation of active compound, 1 part by weight of active compound is mixed with the above stated amounts of solvent and emulsifier, and the concentrate is diluted with water to the desired concentration.
To test for preventive activity, young plants are sprayed with the preparation of active compound at the stated rate of application. After the spray coating has dried on, the plants are inoculated with an aqueous spore suspension of Sphaerotheca fuliginea. The plants are then placed in a greenhouse at approximately 23° C. and a relative atmospheric humidity of approximately 70%.
The test is evaluated 7 days after the inoculation.

SMILES: CCCC1COC(Cn2cncn2)(c2ccc(Oc3ccc(Cl)cc3)nc2C(F)(F)F)O1 (mixture of isomers) [I.05]
LogP [1]: 4.19^[a]

SMILES: CCC1COC(Cn2cncn2)(c2ccc(Oc3ccc(Cl)cc3)nc2C(F)(F)F)O1 (mixture of isomers) [I.15]
LogP [1]: 3.83^[a]

SMILES: FC(F)(F)c1nc(Oc2ccc(Br)cc2)ccc1C1(Cn2cncn2)OCC(C(F)(F)F)O1 (racemic) [I.23]
LogP [1]: 3.80 ^[a]

SMILES: Clc1ccc(Oc2cc(Cl)c(C3(Cn4cncn4)OCCO3)cn2)cc1 [drawing 80, reference compound]
Efficacy in % ([2]; rate of application 100 ppm): 50%
Efficacy in % ([2]; rate of application 500 ppm): 80%

SMILES: FC(F)(F)c1nc(Oc2ccc(Br)cc2)ccc1C1(Cn2cncn2)OCC(C(F)(F)F)O1 (racemic) [I.26]
LogP [1]: 2.26 ^[a]

SMILES: CCC1COC(Cn2cncn2)(c2ccc(Oc3ccc(Br)cc3)nc2C(F)(F)F)O1 (mixture of isomers) [I.06]
LogP [1]: 3.94^[a]

SMILES: CC1COC(Cn2cncn2)(c2ccc(Oc3ccc(Cl)cc3)nc2C(F)(F)F)O1 (single isomer, unassigned) [I.13]
LogP [1]: 3.48^[a]

SMILES: CCC1COC(Cn2cncn2)(c2ccc(Oc3ccc(C(F)(F)F)cc3)nc2C(F)(F)F)O1 (stereo not shown) [I.07, 3-[4-ethyl-2-(1,2,4-triazol-1-ylmethyl)-1,3-dioxolan-2-yl]-2-(trifluoromethyl)-6-[4-(trifluoromethyl)phenoxy]pyridine]
chromatographic logP [1]: 3.96
pest or weed control at 500 ppm [3]: 90 to 100%
pest or weed control at 500 ppm [4]: 90 to 100%
pest or weed control at 500 ppm [5]: 90 to 100%
pest or weed control at 500 ppm [6]: 90 to 100%

SMILES: Clc1ccc(Oc2cc(Cl)c(C3(Cn4cncn4)OCCO3)cn2)cc1 [drawing 85, reference compound]
Efficacy in % ([7]; rate of application 10 ppm): 14%
Efficacy in % ([7]; rate of application 100 ppm): 100%

SMILES: CC1COC(Cn2cncn2)(c2ccc(Oc3ccc(OC(F)(F)F)cc3)nc2C(F)(F)F)O1 (mixture of isomers) [I.21]
LogP [1]: 3.76 ^[a]

SMILES: CC1COC(Cn2cncn2)(c2ccc(Oc3ccc(S(F)(F)(F)(F)F)cc3)nc2C(F)(F)F)O1 (mixture of isomers) [I.19]
LogP [1]: 3.85^[a]

SMILES: CC1COC(Cn2cncn2)(c2ccc(Oc3ccc(C(F)(F)F)cc3)nc2C(F)(F)F)O1 (mixture of isomers) [I.10]
LogP [1]: 3.62^[a]

SMILES: CCCC1COC(Cn2cncn2)(c2ccc(Oc3ccc(Br)cc3)nc2C(F)(F)F)O1 (mixture of isomers) [I.08]
LogP [1]: 4.32^[a]

SMILES: CCC1COC(Cn2cncn2)(c2ccc(Oc3ccc(OC(F)(F)F)cc3)nc2C(F)(F)F)O1 (stereo not shown) [I.24]
LogP [1]: 4.09 ^[a]

SMILES: CC1COC(Cn2cncn2)(c2ccc(Oc3ccc(Br)cc3)nc2C(F)(F)F)O1 (stereo not shown) [I.16, 6-(4-bromophenoxy)-3-[4-methyl-2-(1,2,4-triazol-1-ylmethyl)-1,3-dioxolan-2-yl]-2-(trifluoromethyl)pyridine]
LogP [1]: 3.55
chromatographic logP [1]: 3.59
pest or weed control at 500 ppm [3]: 90 to 100%
pest or weed control at 500 ppm [4]: 90 to 100%
pest or weed control at 500 ppm [5]: 90 to 100%
pest or weed control at 500 ppm [6]: 90 to 100%

SMILES: CCC1COC(Cn2cncn2)(c2ccc(Oc3ccc(S(F)(F)(F)(F)F)cc3)nc2C(F)(F)F)O1 (mixture of isomers) [I.01]
LogP [1]: 4.15^[a]

SMILES: CC(O)(Cn1cncn1)c1ccc(Oc2ccc(Cl)cc2)cc1C(F)(F)F (stereo not shown) [reference compound]
Efficacy in % [8]: 30%

SMILES: CC1OC(Cn2cncn2)(c2ccc(Oc3ccc(Br)cc3)nc2C(F)(F)F)OC1C (mixture of isomers) [I.17]
LogP [1]: 3.85^[a]

SMILES: CC1OC(Cn2cncn2)(c2ccc(Oc3ccc(Cl)cc3)nc2C(F)(F)F)OC1C (mixture of isomers) [I.18]
LogP [1]: 3.76^[a]

Continued, in another order:

LogP [1]: 3.46 ^[a]
SMILES: FC(F)(F)Oc1ccc(Oc2ccc(C3(Cn4cncn4)OCCO3)c(C(F)(F)F)n2)cc1 [I.22]

LogP [1]: 2.94 ^[a]
SMILES: Cc1ccc(Oc2ccc(C3(Cn4nc[nH]c4=S)OCCO3)c(C(F)(F)F)n2)cc1 [I-S.03]

chromatographic logP [1]: 4.44
SMILES: CC1(c2ccc(Oc3ccc(Cl)cc3)nc2C(F)(F)F)OCCO1 [XV.01, 6-(4-chlorophenoxy)-3-(2-methyl-1,3-dioxolan-2-yl)-2-(trifluoromethyl)pyridine]

LogP [1]: 3.14 ^[a]
SMILES: FC(F)(F)c1nc(Oc2ccc(Br)cc2)ccc1C1(Cn2nc[nH]c2=S)OCCO1 [I-S.05]

chromatographic logP [1]: 3.18
SMILES: FC(F)(F)c1ccc(Oc2ccc(C3(Cn4nc[nH]c4=S)OCCO3)c(C(F)(F)F)n2)cc1 [I-S.01, 2-[[2-[2-(trifluoromethyl)-6-[4-(trifluoromethyl)phenoxy]-3-pyridyl]-1,3-dioxolan-2-yl]methyl]-4H-1,2,4-triazole-3-thione]
pest or weed control at 500 ppm [3]: 90 to 100%
pest or weed control at 500 ppm [4]: 90 to 100%
pest or weed control at 500 ppm [5]: 90 to 100%
pest or weed control at 500 ppm [6]: 90 to 100%

chromatographic logP [1]: 3.35
SMILES: FC(F)(F)c1nc(Oc2ccc(Br)cc2)ccc1C1(Cn2cncn2)OCCO1 [I.02]
pest or weed control at 500 ppm [3]: 90 to 100%
pest or weed control at 500 ppm [4]: 90 to 100%
pest or weed control at 500 ppm [5]: 90 to 100%
pest or weed control at 500 ppm [6]: 90 to 100%
Efficacy in % ([2]; rate of application 100 ppm): 93%
Efficacy in % ([2]; rate of application 500 ppm): 100%

LogP [1]: 3.55^[a]
SMILES: CC1COC(Cn2cncn2)(c2ccc(Oc3ccc(Cl)cc3)nc2C(F)(F)F)O1 (mixture of isomers) [I.03]

LogP [1]: 3.21 ^[a]
SMILES: Cc1ccc(Oc2ccc(C3(Cn4cncn4)OCCO3)c(C(F)(F)F)n2)cc1 [I.25]

chromatographic logP [1]: 3.06
SMILES: FC(F)(F)c1nc(Oc2ccc(Cl)cc2)ccc1C1(Cn2nc[nH]c2=S)OCCO1 [I-S.02, 2-[[2-[6-(4-chlorophenoxy)-2-(trifluoromethyl)-3-pyridyl]-1,3-dioxolan-2-yl]methyl]-4H-1,2,4-triazole-3-thione]
pest or weed control at 500 ppm [3]: 90 to 100%
pest or weed control at 500 ppm [4]: 90 to 100%
pest or weed control at 500 ppm [5]: 90 to 100%
pest or weed control at 500 ppm [6]: 90 to 100%

chromatographic logP [1]: 3.54
SMILES: FC(F)(F)c1nc(Oc2ccc(S(F)(F)(F)(F)F)cc2)ccc1C1(Cn2cncn2)OCCO1 [I.11]
pest or weed control at 500 ppm [3]: 90 to 100%
pest or weed control at 500 ppm [4]: 90 to 100%
pest or weed control at 500 ppm [5]: 90 to 100%
pest or weed control at 500 ppm [6]: 70 to 79%
Efficacy in % ([2]; rate of application 100 ppm): 71%
Efficacy in % ([2]; rate of application 500 ppm): 100%

LogP [1]: 3.05 ^[a]
SMILES: CSc1ccc(Oc2ccc(C3(Cn4cncn4)OCCO3)c(C(F)(F)F)n2)cc1 [I.20]

LogP [1]: 2.95 ^[a]
SMILES: CSc1ccc(Oc2ccc(C3(Cn4nc[nH]c4=S)OCCO3)c(C(F)(F)F)n2)cc1 [I-S.04]

LogP [1]: 3.46^[a]
SMILES: CC1COC(Cn2cncn2)(c2ccc(Oc3ccc(Cl)cc3)nc2C(F)(F)F)O1 (racemic) [I.09]

chromatographic logP [1]: 3.29
SMILES: FC(F)(F)c1ccc(Oc2ccc(C3(Cn4cncn4)OCCO3)c(C(F)(F)F)n2)cc1 [I.14, 3-[2-(1,2,4-triazol-1-ylmethyl)-1,3-dioxolan-2-yl]-2-(trifluoromethyl)-6-[4-(trifluoromethyl)phenoxy]pyridine]
pest or weed control at 500 ppm [3]: 90 to 100%
pest or weed control at 500 ppm [4]: 90 to 100%
pest or weed control at 500 ppm [5]: 90 to 100%
pest or weed control at 500 ppm [6]: 90 to 100%
Efficacy in % ([2]; rate of application 100 ppm): 100%
Efficacy in % ([2]; rate of application 500 ppm): 100%
Efficacy in % ([7]; rate of application 10 ppm): 75%
Efficacy in % ([7]; rate of application 100 ppm): 100%

LogP [1]: 3.48^[a]
SMILES: CC1COC(Cn2cncn2)(c2ccc(Oc3ccc(Cl)cc3)nc2C(F)(F)F)O1 (single isomer, unassigned) [I.12]
